Results taken from US8686024B2, “Indoline derivatives” (priority 2009, dated 2014).
Read-outs that look alike come from different tables or passages of the source.

Key:
[1] = molecular target: T1, butyrylcholine esterase (BuChE) (Mus musculus, UniProt Q03311); test: In vitro assay for choline esterase inhibition (Ellman method), butyrylthiocholine substrate, mouse serum; format: biochemical; settings: for Ratio AChE/BuChE: selectivity for BuChE inhibition: IC50 (AchE)/IC50 (BuChE); for selectivity to butyrylcholinesterase (BuChE versus AChE inhibitory activity), in words: summary of Tables 1-3
T1 construct: brain homogenate and serum of mouse were used as choline esterase enzyme sources; from tissue; host or cells: mouse serum
T1 sequence (Q03311 30-603): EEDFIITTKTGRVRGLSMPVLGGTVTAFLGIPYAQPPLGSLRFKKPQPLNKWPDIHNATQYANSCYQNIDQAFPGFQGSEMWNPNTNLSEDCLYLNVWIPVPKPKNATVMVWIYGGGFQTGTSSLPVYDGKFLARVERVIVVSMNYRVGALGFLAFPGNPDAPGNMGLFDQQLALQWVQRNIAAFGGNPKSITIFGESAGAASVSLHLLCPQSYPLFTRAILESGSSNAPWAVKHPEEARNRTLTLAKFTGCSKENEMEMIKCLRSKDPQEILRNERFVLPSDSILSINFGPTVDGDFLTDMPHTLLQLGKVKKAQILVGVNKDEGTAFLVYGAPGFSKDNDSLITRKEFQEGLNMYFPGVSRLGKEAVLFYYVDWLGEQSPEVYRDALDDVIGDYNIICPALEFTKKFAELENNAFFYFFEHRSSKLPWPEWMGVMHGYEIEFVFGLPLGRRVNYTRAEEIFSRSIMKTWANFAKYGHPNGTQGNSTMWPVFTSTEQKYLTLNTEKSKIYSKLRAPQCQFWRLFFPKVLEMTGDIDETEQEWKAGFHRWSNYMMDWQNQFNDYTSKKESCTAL
Description: (§1) For measurement of esterase activity, brain homogenate and serum of mouse were used as choline esterase enzyme sources, and the method of Ellman et. al (Biochemical pharmacology 7: 88-95 1961) were referred. Compound of each example were diluted in dimethylsulfoxide.
(§2) In detail, acetylthiocholine or butyrylthiocholine as substrates, test compounds, and DNTB [[…]] were added to the mouse brain homogenate or serum, respectively.
(§3) After incubation, thiocholine was produced by enzyme reaction in the mixture, and then, the yellow product was formed by the reaction of thiocholine and DTNB. The activity of acetylcholine esterase (AChE) or butyrylcholine esterase (BuChE) was evaluated by determination of absorbance at 415 nm. […] And the selectivity for BuChE inhibition of each compound was calculated by the ratio: IC50 (AchE)/IC50 (BuChE).

[2] = molecular target: T2, acetylcholine esterase (AChE) (Mus musculus, UniProt P21836); test: In vitro assay for choline esterase inhibition (Ellman method), acetylthiocholine substrate, mouse brain homogenate; format: biochemical
T2 construct: brain homogenate and serum of mouse were used as choline esterase enzyme sources; from tissue; host or cells: mouse brain homogenate
T2 sequence (P21836 32-614): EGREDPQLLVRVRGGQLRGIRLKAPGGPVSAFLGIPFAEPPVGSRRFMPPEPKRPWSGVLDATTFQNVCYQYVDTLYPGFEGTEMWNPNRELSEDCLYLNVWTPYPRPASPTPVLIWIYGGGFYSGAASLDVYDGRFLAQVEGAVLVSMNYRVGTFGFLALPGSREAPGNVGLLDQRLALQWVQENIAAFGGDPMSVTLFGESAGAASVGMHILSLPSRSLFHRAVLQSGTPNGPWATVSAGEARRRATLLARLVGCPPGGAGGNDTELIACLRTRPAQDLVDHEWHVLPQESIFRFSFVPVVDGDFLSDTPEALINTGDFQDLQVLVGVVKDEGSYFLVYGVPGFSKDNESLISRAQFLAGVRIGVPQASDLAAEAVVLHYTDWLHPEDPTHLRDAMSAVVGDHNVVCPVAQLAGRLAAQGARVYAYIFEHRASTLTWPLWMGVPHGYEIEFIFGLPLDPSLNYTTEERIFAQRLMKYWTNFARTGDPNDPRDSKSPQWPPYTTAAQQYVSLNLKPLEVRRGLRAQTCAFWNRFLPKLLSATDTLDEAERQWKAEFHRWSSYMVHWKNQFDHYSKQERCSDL
Description: as §1, §2, §3

[3] = mouse serum, butyrylthiocholine, absorbance at 415 nm, read-out: BuChE inhibitory activity IC50
[4] = mouse brain homogenate, acetylthiocholine, absorbance at 415 nm, read-out: AChE inhibitory activity IC50

Row | SMILES | IC50 [1] [nM] | Ratio AChE/BuChE [1] | selectivity to butyrylcholinesterase (BuChE versus AChE inhibitory activity), in words [1] | IC50 [2] [nM] | IC50 [1, 3] [nM] | IC50 [2, 4] [nM]
1 | CCCCCC(C)NC(=O)Oc1ccc2c(c1)CCN2Cc1ccccc1 (stereo not shown) [Example 50, 1-benzylindolin-5-yl 2-heptylcarbamate] | 53 | >1900 | much higher | > 100000 |  | 
2 | O=C(Nc1ccc2c(c1)OCCO2)Oc1ccc2c(c1)CCN2Cc1ccccc1 [Example 11, 1-benzylindolin-5-yl 2,3-dihydro-1,4-benzodioxin-6-ylcarbamate] | 170 | >590 |  | > 100000 |  | 
3 | CC(C)c1ccc(NC(=O)Oc2ccc3c(c2)CCN3Cc2cccnc2)cc1 [Example 28, 1-(3-pyridylmethyl)indolin-5-yl 4-isopropylphenylcarbamate] | 470 | >210 |  | > 100000 |  | 
4 | O=C(NCC1CCCCC1)Oc1ccc2c(c1)CCN2Cc1ccccn1 [Example 148, 1-(2-pyridylmethyl)indolin-5-yl cyclohexylmethylcarbamate] |  | 600 | much higher |  | 2 | 1200
5 | O=C(NCC1CCOC1)Oc1ccc2c(c1)CCN2Cc1ccccc1 (stereo not shown) [Example 155, 1-benzylindolin-5-yl 3-tetrahydrofurylmethylcarbamate] |  | 3800 | much higher |  | 15 | 57000
6 | CCCN(CCC)C(=O)CC1CN(Cc2ccccc2)c2ccc(OC(=O)Nc3ccc(C(C)C)cc3)cc21 (stereo not shown) [Example 161, 1-benzyl-3-(di-n-propylaminocarbonylmethyl)indolin-5-yl 4-isopropylphenylcarbamate] | 150 | >670 |  | > 100000 |  | 
7 | CC(C)c1ccc(NC(=O)Oc2ccc3c(c2)CCN3Cc2ccccn2)cc1 [Example 60, 1-(2-pyridylmethyl)indolin-5-yl 4-isopropylphenylcarbamate] | 130 | >770 |  | > 100000 |  | 
8 | CN(CC1CCOCC1)C(=O)Oc1ccc2c(c1)C(C)(C)CN2Cc1ccccn1 [Example 218, N-methyl-O-[1-(2-pyridylmethyl)-3,3-dimethylindolin-5-yl]-N-(4-tetrahydropyranylmethyl)carbamate] | 0.66 | 13000 | much higher | 8500 |  | 
9 | CC(C)c1ccc(NC(=O)Oc2ccc3c(c2)CCN3CC2CCCCC2)cc1 [Example 75, 1-(cyclohexylmethyl)indolin-5-yl 4-isopropylphenylcarbamate] | 770 | >130 |  | > 100000 |  | 
10 | CCCN(CCC)C(=O)CC1c2cc(OC(=O)Nc3ccc(C(C)C)cc3)ccc2N(Cc2ccccc2)C1C (stereo not shown) [Example 162, 1-benzyl-3-(di-n-propylaminocarbonylmethyl)-2-methylindolin-5-yl 4-isopropyl phenylcarbamate] | 410 | >240 |  | > 100000 |  | 
11 | CCNC(=O)Oc1ccc2c(c1)CCN2Cc1ccccc1 [Example 57, 1-benzylindolin-5-yl ethylcarbamate] |  | 2000 | much higher |  | 34 | 69000
12 | CN(CC1CCOCC1)C(=O)Oc1ccc2c(c1)C(C)(C)CN2Cc1ccncc1 [Example 220, N-methyl-O-[1-(4-pyridylmethyl)-3,3-dimethylindolin-5-yl]-N-(4-tetrahydropyranylmethyl)carbamate] | 1.9 | 11000 | much higher | 21000 |  | 
13 | CC(C)CNC(=O)Oc1ccc2c(c1)CCN2Cc1ccccc1 [Example 35, 1-benzylindolin-5-yl 2-methylpropylcarbamate] |  | 5800 | much higher |  | 8 | 46000
14 | O=C(NC1CCCc2ccccc21)Oc1ccc2c(c1)CCN2Cc1ccccc1 (stereo not shown) [Example 96, 1-benzylindolin-5-yl-1,2,3,4-tetrahydronaphthalen-1-ylcarbamate] |  | >5900 | much higher |  | 17 | > 100000
15 | CN(CC1CCOCC1)C(=O)Oc1ccc2c(c1)C(C)(C)CN2Cc1cccnc1 [Example 219, N-methyl-O-[1-(3-pyridylmethyl)-3,3-dimethylindolin-5-yl]-N-(4-tetrahydropyranylmethyl)carbamate] | 1.2 | 17000 | much higher | 20000 |  | 
16 | CC(C)c1ccc(NC(=O)Oc2ccc3c(c2)CCN3Cc2ccncc2)cc1 [Example 27, 1-(4-pyridylmethyl)indolin-5-yl 4-isopropylphenylcarbamate] | 1100 | >91 |  | > 100000 |  | 
17 | C=C(C)CNC(=O)Oc1ccc2c(c1)CCN2Cc1ccccc1 [Example 53, 1-benzylindolin-5-yl 2-methylallylcarbamate] |  | 1600 | much higher |  | 28 | 46000
18 | CC(=O)NCCC1CN(Cc2ccccc2)c2ccc(OC(=O)Nc3ccc(C(C)C)cc3)cc21 (stereo not shown) [Example 160, 3-(2-acetamidethyl)-1-benzylindolin-5-yl-4-isopropylphenylcarbamate] | 550 | >180 |  | > 100000 |  | 
19 | O=C(NCCSCc1ccco1)Oc1ccc2c(c1)CCN2Cc1ccccc1 [Example 54, 1-benzylindolin-5-yl 2-(furfurylthio)ethylcarbamate] | 15 | >6700 | much higher | > 100000 |  | 
20 | Cc1ccc(C(C)NC(=O)Oc2ccc3c(c2)CCN3Cc2ccccc2)cc1 (stereo not shown) [Example 97, 1-benzylindolin-5-yl 1-(p-tolyl)ethylcarbamate] | 450 | >220 |  | > 100000 |  | 
21 | O=C(NCC12CC3CC(CC(C3)C1)C2)Oc1ccc2c(c1)CCN2Cc1ccccc1 [Example 47, 1-benzylindolin-5-yl 1-adamantanemethylcarbamate] | 82 | >1200 | much higher | > 100000 |  | 
22 | O=C(NCc1cccs1)Oc1ccc2c(c1)CCN2Cc1ccccc1 [Example 98, 1-benzylindolin-5-yl 2-thiophenemethylcarbamate] |  | 130 | much higher |  | 12 | 1600
23 | Cc1ccc(NC(=O)Oc2ccc3c(c2)CCN3Cc2ccccc2)cc1C [Example 113, 1-benzylindolin-5-yl 3,4-dimethylphenylcarbamate] | 160 | >630 |  | > 100000 |  | 
24 | CNC(=O)Oc1ccc2c(c1)CCN2Cc1ccccc1 [Example 131, 1-benzylindolin-5-yl methylcarbamate] | 210 | 6.2 |  | 1300 |  | 
